Results: US20180177749A1, “USE OF CYP EXPRESSION TO DIRECT THERAPEUTIC INTERVENTION IN CANCER” (REGENTS OF THE UNIVERSITY OF MINNESOTA, priority 2016, published 2018)
Read-outs that look alike come from different tables or passages of the source.

Experiments:
CYP3A4 (Δ3-22) = CYP3A4 (Δ3-22) (Homo sapiens, UniProt P08684); assay: Spectral binding to soluble truncated CYP3A4; settings: soluble truncated CYP3A4Δ3-22; read-out: spectral dissociation constant (Ks)
MCF-10A = assay: Cell growth inhibition, MCF-10A non-transformed breast cell line; assay type: cell-based; settings: Homo sapiens, ER−[PR−]
MCF-7 cells = assay: Cellular ATP by luminescent assay; assay type: cell-based, human
Method: Cells were seeded in 96-well tissue culture plate in 100 μL medium per well. After treatment with either vehicle or testing compound for an appropriate length of time, 50 μL mammalian cell lysis solution was added to each well and the plate was shaken for 5 minutes on an orbital shaker. To each well, 50 μL luminescent substrate and luciferase solution were then added. After incubation in the dark for 10 minutes, the luminescence measured. Cellular ATP levels were then calculated against a standard curve generated with ATP standards of known concentration.

MCF-7 xenograft = test system: MCF-7 xenograft
Method: 17-β-estradiol (E2) was given in drinking water at 1 μM beginning the day of tumor implantation. […] Tumors were collected from each mouse after sacrifice and endpoint tumor weights were measured.
N=20 mice per arm for each study; error bars represent SEM.
In the HBB dose optimization model, mammary fat pad injection was performed with the MCF-7 cell line as described above, and tumors were allowed to grow until an average tumor volume of 50 mm^3. Mice were randomized, and tumor growth was monitored. Estradiol (1 μM) was present in the drinking water as above. Cremophor was administered weekly in the vehicle and HBB groups so that paclitaxel could be used in subsequent chemotherapy synergy studies (unpublished data). Mice were dosed at 6 mg/kg/day ip 4 days of 7 with no more than 2 consecutive days dosing and weighed daily. […] Tumors were harvested at the endpoint of the study following sacrifice by isoflurane anesthesia followed by cervical dislocation. Organs were harvested for histopathological assay of end organ toxicity.

CYP2C8 = biological target: T1, CYP2C8 (Homo sapiens, UniProt P10632); assay: Recombinant microsomal CYP-mediated EET biosynthesis (CYP2C8 Supersomes); assay type: biochemical; design: host or cells: insect cells (microsomes)
T1 sequence (P10632 1-490): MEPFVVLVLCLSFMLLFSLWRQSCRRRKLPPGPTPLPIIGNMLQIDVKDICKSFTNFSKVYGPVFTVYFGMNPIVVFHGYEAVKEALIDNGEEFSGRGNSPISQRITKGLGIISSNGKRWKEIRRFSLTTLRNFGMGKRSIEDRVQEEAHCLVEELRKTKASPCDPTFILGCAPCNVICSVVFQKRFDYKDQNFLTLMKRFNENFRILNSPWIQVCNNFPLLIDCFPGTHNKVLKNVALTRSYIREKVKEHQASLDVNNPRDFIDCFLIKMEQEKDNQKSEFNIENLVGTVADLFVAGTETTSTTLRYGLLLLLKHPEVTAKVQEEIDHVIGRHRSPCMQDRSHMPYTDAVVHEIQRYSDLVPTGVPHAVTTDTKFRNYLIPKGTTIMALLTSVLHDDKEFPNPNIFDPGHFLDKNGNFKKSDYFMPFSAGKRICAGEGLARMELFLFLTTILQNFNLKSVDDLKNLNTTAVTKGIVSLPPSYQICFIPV
Method: Samples were submitted to liquid chromatography-electrospray ionization/multiple reaction monitoring/mass spectrometry (LC-ESI/MRM/MS) analysis in a Thermo Electron Quantum Discovery Max triple quadrupole mass spectrometer (Thermo Finnigan, San Jose, Calif.) coupled with an Agilent 1100 HPLC (Santa Clara, Calif.), using argon as the collision gas. Negative ion monitoring was performed at the following diagnostic product ions: 319 m/z→155 m/z for 8,9-EET; 319 m/z→179 m/z for 11,12-EET; 319 m/z→219 m/z for 14,15-EET; 339 m/z→163 m/z for 8,9-[13C20]EET; 339 m/z→233 m/z for 11,12-[13C20]EET; and 339 m/z→259 m/z for 14,15-[^13C20]EET. Base-line resolution of EET regioisomers was achieved on a Phenomenex Luna C18 (2) reverse phase capillary column (250×0.5 mm, 5-μm particles) using the following mobile phase combinations: isocratic 5% B for 5 min, gradient 5-70% B for 5 min, hold at 70% for 30 min and then 95% for 10 min; A: 0.01% acetic acid in water, B: 0.01% acetic acid in acetonitrile; […] flow rate. A standard curve was obtained by linear regression of the peak area ratio of authentic EET regioisomers against internal standards. The amount of EETs in samples was calculated according to the standard curve. The (±)-5,6-EET regioisomer was not measured because it undergoes rapid internal degradation.
CYP3A4 or 2C8 Supersomes™ (BD Biosciences) were incubated at 37° C. for 30 min in the presence of AA (5 μM) in […] Tris-HCl, pH 7.4, containing 1 mm EDTA and 1 mm NADPH. Reactions were terminated by adding methylene chloride (0.5 ml). Samples were centrifuged at 3,000 rpm for 10 min and 150 μl of the organic phases were evaporated under nitrogen. […] Reaction extracts were chromatographed under the conditions described above, and ions of 319 m/z, corresponding to AA monooxygenation products, were selectively monitored in negative mode. Concentrations of EETs generated by CYP Supersomes™ were calculated by linear regression against standard curve generated with EET standards.

CYP3A4 (Δ3-22), sequence (P08684 with tags, fused parts or gaps): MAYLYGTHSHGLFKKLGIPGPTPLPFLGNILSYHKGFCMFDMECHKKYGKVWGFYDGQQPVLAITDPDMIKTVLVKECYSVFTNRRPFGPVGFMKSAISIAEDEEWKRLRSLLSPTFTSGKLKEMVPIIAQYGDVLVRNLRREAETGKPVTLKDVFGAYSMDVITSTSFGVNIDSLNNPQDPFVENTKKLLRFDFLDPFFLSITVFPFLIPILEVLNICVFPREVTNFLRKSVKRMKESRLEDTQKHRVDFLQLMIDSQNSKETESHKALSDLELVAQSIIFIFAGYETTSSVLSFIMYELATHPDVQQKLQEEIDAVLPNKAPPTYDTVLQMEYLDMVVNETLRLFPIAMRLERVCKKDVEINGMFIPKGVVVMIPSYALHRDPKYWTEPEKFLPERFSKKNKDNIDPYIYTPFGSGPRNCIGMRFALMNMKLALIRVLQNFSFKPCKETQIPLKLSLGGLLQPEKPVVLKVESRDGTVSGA

CCCCCCNC(=N)NC(=N)NCc1ccccc1 [HBB, N1-hexyl-N5-benzyl-biguanide]
Kd (CYP3A4 (Δ3-22)): 164 µM | IC50 (MCF-10A): 20.5 µM | ATP depletion (MCF-7 cells; 6 hours): 30% | total cellular ATP levels (MCF-7 cells; 6 hours of treatment, metformin 5 mM): reduced | end point tumor weights lower than control (MCF-7 xenograft; 4 mg/kg/day ip): 34% | tumor growth (MCF-7 xenograft; 4 mg/kg/day ip): slower growth | end point tumor weight (mean±SEM) (MCF-7 xenograft; 4 mg/kg/day ip, n=19): 220 ± 35 mg | tumor growth (MCF-7 xenograft; 6 mg/kg ip 4 of 7 days (24 mg/kg/week), from 50 mm^3): significant reduction of tumor growth | end point tumor weights lower than PBS group (MCF-7 xenograft; 24 mg/kg/week ip): 48% | end point tumor weight (mean±SEM) (MCF-7 xenograft; 24 mg/kg/week ip, n=13): 127 ± 16 mg | weight decline vs. control (MCF-7 xenograft; mouse, in vivo, ip, 6 mg/kg/day): > 5% | IC50 (CYP2C8; read-out: IC50, CYP2C8 synthesis of (±)-8,9-EET): 65 µM | IC50 (CYP2C8; read-out: IC50, CYP2C8 synthesis of (±)-11,12-EET): 50 µM | IC50 (CYP2C8; read-out: IC50, CYP2C8 synthesis of (±)-14,15-EET): 45 µM
